Laboratory results from PubChem BioAssay AID2630 (Broad Institute, 2010).
Values joined by “and” are separate entries in the source; they are usually repeats but may differ in a detail not shown here. Equal entries are not always repeated. Results filed as inconclusive are left out.

Tested on: T. cruzi beta-gal in NIH3T3, GalScreen luminescence, 90 h
Test: inhibitors of Trypanosoma cruzi host-cell infection, confirmation, beta-gal luminescence, NIH3T3 host cells (AID 2630)

Compound | EC50
CN(Cc1ccccc1)C(=O)C1CCCN(Cc2cccc(Cl)c2)C1 (configuration not stated) | 231 nM and 34.7 nM
CC(C)Oc1cccc(C(=O)C2CCCN(Cc3cnn(C(C)C)c3)C2)c1 (configuration not stated) | 68 nM and 16.5 nM
